Earlier results in patent US7575768B2, “Dietary supplements and prepared foods containing triglyceride-recrystallized non-esterified phytosterols” (Brandeis University, priority 2005, dated 2009).

System: humans

SMILES | lowering of serum cholesterol (12-18 g per day in divided doses, males with atherosclerosis) | decrease of plasma cholesterol level (9-18 grams per day, coarse powdered form)
CC[C@H](CC[C@@H](C)[C@H]1CC[C@H]2[C@@H]3CC=C4C[C@@H](O)CC[C@]4(C)[C@H]3CC[C@]12C)C(C)C [beta sitosterol] | 15-20% | –
CC[C@H](CC[C@@H](C)[C@H]1CC[C@H]2[C@@H]3CC=C4C[C@@H](O)CC[C@]4(C)[C@H]3CC[C@]12C)C(C)C [sitosterol] | – | approximately 15%
